Experimental data: PubChem BioAssay (NCI)
“And” between values parts separate entries of the source, which are not always exact repeats. Equal values may be shown once.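 Results reflect a 48-hour exposure of cells in 96-well plates to compound at five concentrations. GI50: concentration for 50% inhibition of growth. Definition used: TGI = concentration required for complete inhibition of growth.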

Legend:
Test in all cases: NCI anticancer screen, dose series, 48 h
[1] = system: KM20L2 colon
[2] = system: DLD-1 colon
[3] = system: DMS 273 small cell lung
[4] = system: BT-549 breast
[5] = system: T-47D breast
[6] = system: MDA-MB-435
[7] = system: HS 578T breast
[8] = system: MDA-N

Compound: CC1(C)OB(O)OC1(C)C
- TGI [1]: > 100 µM
- TGI [2]: > 100 µM
- TGI [3]: > 100 µM

Compound: O=S(=O)(N/N=C/c1cccc(Cl)c1Cl)c1ccccc1
- TGI [1]: > 100 µM
- TGI [2]: > 100 µM
- TGI [3]: > 100 µM

Compound: CC(C)CC(=O)Nc1n[nH]c2c1CN(C(=O)C1CCN(C)CC1)C2(C)C
- GI50 [4]: 3.86 µM
- TGI [4]: > 10 µM
- GI50 [5]: 1.59 µM
- TGI [5]: 9.54 µM
- GI50 [6]: 1.41 µM
- TGI [6]: > 10 µM
- GI50 [7]: 0.712 µM
- TGI [7]: > 10 µM

Compound: CN(C)C/C=C/C(=O)Nc1cc2c(Nc3ccc(F)c(Cl)c3F)ncnc2cc1OCCOC(F)F
- GI50 [4]: 1.57 µM
- TGI [4]: 6.86 µM
- GI50 [5]: < 0.0127 µM
- TGI [5]: 0.458 µM
- GI50 [6]: 1.17 µM
- TGI [6]: 6.63 µM
- GI50 [7]: 0.764 µM
- TGI [7]: 6.19 µM

Compound: CN(C)CCNC(=O)c1cccc2c(Nc3ccc(S(N)(=O)=O)cc3)c3ccccc3nc12
- TGI [1]: 13.3 µM
- TGI [3]: 3.71 µM

Compound: COc1ccc(/C=C2\CC(C)CC3C2=NN(C(C)=O)C3c2ccc(OC)cc2)cc1 (stereo not drawn)
- GI50 [4]: 23 µM
- TGI [4]: 55.9 µM
- GI50 [5]: 25.7 µM
- TGI [5]: > 100 µM
- GI50 [6]: 19.9 µM
- TGI [6]: 49.1 µM
- GI50 [7]: 22.1 µM
- TGI [7]: 60.6 µM

Compound: O=Cc1ccc(-c2ccc(-c3nc4ccccc4o3)cc2)s1
- GI50 [4]: 18 µM
- TGI [4]: 52.6 µM
- GI50 [5]: 22.6 µM
- TGI [5]: > 100 µM
- GI50 [6]: 24.1 µM
- TGI [6]: 77.9 µM

Compound: CN1CCN(c2cc(C(=O)Nc3cc4cc(-c5cnn(C)c5)ccc4cn3)ccn2)CC1
- GI50 [4]: 0.0781 µM
- TGI [4]: 0.838 µM
- GI50 [5]: 0.0769 µM
- TGI [5]: 10.5 µM
- GI50 [6]: 0.169 µM
- TGI [6]: 13.2 µM
- GI50 [7]: 0.276 µM
- TGI [7]: 6.18 µM

Compound: COc1ccc(-c2nc(C(=O)c3ccccc3)n(CC(=O)c3ccccc3)c2-c2ccc(OC)cc2)cc1
- GI50 [4]: > 100 µM
- TGI [4]: > 100 µM
- GI50 [5]: > 100 µM
- TGI [5]: > 100 µM
- GI50 [6]: > 100 µM
- TGI [6]: > 100 µM
- GI50 [7]: > 100 µM
- TGI [7]: > 100 µM

Compound: CC(=O)N1c2ccccc2NC2=C(C(=O)N(Cc3ccccc3)C2(C)C)C1c1ccco1 (stereo not drawn)
- GI50 [4]: 8.66 µM
- TGI [4]: > 25 µM
- GI50 [5]: 4.88 µM
- TGI [5]: > 25 µM
- GI50 [6]: 0.277 µM
- TGI [6]: 0.859 µM
- GI50 [7]: 0.976 µM
- TGI [7]: > 21.9 µM

Compound: C[C@@H]1Cc2c([nH]c3ccccc23)[C@@H](c2c(F)cc(NC3CN(CCCF)C3)cc2F)N1CC(F)(F)CO
- GI50 [4]: 2.05 µM
- TGI [4]: 4.04 µM
- GI50 [5]: 1.06 µM
- TGI [5]: 18.5 µM
- GI50 [6]: 3.89 µM
- TGI [6]: 15.1 µM
- GI50 [7]: 3.73 µM
- TGI [7]: 19.1 µM

Compound: COC(=O)c1c(O)c([N+](=O)[O-])cc2c1c1c(n2Cc2ccccc2)C(=O)c2ccccc2C1=O
- GI50 [4]: 5.9 µM
- TGI [4]: 51.5 µM
- GI50 [5]: 11.8 µM
- TGI [5]: 45.8 µM
- GI50 [6]: 6.28 µM
- TGI [6]: 28 µM
- GI50 [7]: 29.9 µM
- TGI [7]: 92.4 µM

Compound: O=C(/C=N/O)Nc1cc(Cl)c(Cl)cc1Cl
- TGI [4]: 89.3 µM
- TGI [5]: 95.5 µM
- TGI [6]: 67 µM
- TGI [7]: 85.5 µM
- TGI [8]: > 100 µM

Compound: CN(C)CCSc1cccc(-c2cc(-c3cccc(SCCN(C)C)c3)nc(SCCN(C)C)n2)c1
- TGI [1]: 3.46 µM
- TGI [2]: 25.9 µM

Compound: CN(C)c1ncc(-c2ccc(C(F)(F)F)cc2)c(NC2CCCCCC2)n1
- GI50 [4]: 20.4 µM
- TGI [4]: 44.4 µM
- GI50 [5]: 25 µM
- TGI [5]: > 100 µM
- GI50 [6]: 24.8 µM
- TGI [6]: > 100 µM
- GI50 [7]: 23.1 µM
- TGI [7]: > 100 µM

Compound: CCN(CC)c1ccc2c(c1)Oc1nc(N)c(C#N)c(N)c1C2Sc1ccc(OC)cc1 (stereo not drawn)
- GI50 [4]: 1.53 µM
- TGI [4]: 2.95 µM
- GI50 [5]: 1.91 µM
- TGI [5]: 4.89 µM
- GI50 [6]: 1.79 µM
- TGI [6]: 3.4 µM
- GI50 [7]: 2.17 µM
- TGI [7]: 6.11 µM

Compound: COC(=O)CCC(=O)Nc1cc(Cl)ccc1Cl
- TGI [1]: > 100 µM
- TGI [2]: > 100 µM

Compound: Cc1nc([C@H]2CC[C@H]3[C@@H]4CCC5=CC(=O)CC[C@]5(C)[C@H]4CC[C@]23C)cs1
- GI50 [4]: 1.97 µM
- TGI [4]: 8.97 µM
- GI50 [5]: 1.83 µM
- TGI [5]: > 100 µM
- GI50 [6]: 5.02 µM
- TGI [6]: > 100 µM
- GI50 [7]: > 66.1 µM
- TGI [7]: > 100 µM

Compound: O=C(O)c1cc2ccccc2c(N=Nc2cc(C(F)(F)F)ccc2Cl)c1O
- TGI [5]: > 100 µM
- TGI [6]: > 100 µM
- TGI [7]: > 100 µM
- TGI [8]: > 100 µM

Compound: O=C(CC1(O)C(=O)Nc2ccccc21)c1ccco1 (stereo not drawn)
- TGI [1]: > 100 µM
- TGI [2]: > 100 µM
- TGI [3]: > 100 µM

Compound: O=C(O)c1cc2ccccc2oc1=O
- TGI [4]: > 100 µM
- GI50 [5]: > 100 µM and 33.6 µM
- TGI [5]: > 100 µM
- TGI [6]: > 100 µM
- TGI [7]: > 100 µM
- TGI [8]: > 100 µM

Compound: COc1ccc(NC(=O)CC/C(CC(=O)C(C)(C)C)=N\NC(=O)C(N)=O)cc1
- TGI [1]: > 100 µM
- TGI [2]: > 100 µM

Compound: C#CCN(N=O)C(=O)NC(CCCNC(=O)OCc1ccccc1)C(=O)OCc1ccccc1 (stereo not drawn)
- TGI [1]: > 100 µM
- TGI [2]: > 100 µM
- TGI [3]: > 100 µM

Compound: COc1ccc(C(=O)C(c2ccc(OC)cc2)C2OC(=O)C(Cl)=C2Cl)cc1 (stereo not drawn)
- TGI [2]: > 100 µM

Compound: CC1=C(C(=O)NCc2ccccc2)C(c2ccc([N+](=O)[O-])cc2)C(C(=O)NCc2ccccc2)=C(C)N1
- TGI [1]: 54 µM
- TGI [2]: > 100 µM
- TGI [3]: > 100 µM

Compound: Clc1ccc(C2=Nn3c(nnc3-c3cc(Cl)cc(Cl)c3Cl)SC2)cc1
- GI50 [4]: 17.6 µM
- TGI [4]: 47.7 µM
- GI50 [5]: > 100 µM
- TGI [5]: > 100 µM
- GI50 [6]: 2.79 µM
- TGI [6]: 11.4 µM
- GI50 [7]: 16.5 µM
- TGI [7]: 71.3 µM

Compound: CCCCCCCCCc1cc[n+](CC(=O)c2ccc([N+](=O)[O-])cc2)cc1
- GI50 [4]: 1.27 µM
- TGI [4]: 2.72 µM
- GI50 [5]: 1.63 µM
- TGI [5]: 3.64 µM
- GI50 [6]: 0.391 µM
- TGI [6]: 1.56 µM
- GI50 [7]: 1.69 µM
- TGI [7]: 4.51 µM

Compound: CS(=O)(=O)CCNCc1ccc(-c2ccc3ncnc(Nc4ccc(OCc5cccc(F)c5)c(C(F)(F)F)c4)c3c2)o1
- GI50 [4]: 4.9 µM
- TGI [4]: 11.9 µM
- GI50 [5]: 3.4 µM
- TGI [5]: 7.74 µM
- GI50 [6]: 4.01 µM
- TGI [6]: 7.68 µM
- GI50 [7]: 3.88 µM
- TGI [7]: 13.5 µM

Compound: CC(=O)C1C(=O)NC(=O)C1=O (stereo not drawn)
- TGI [1]: > 100 µM
- TGI [3]: > 100 µM

Compound: CS(=O)(=O)Nc1cccc(-c2cc(-c3ccccc3Cl)c(C#N)c(N)n2)c1
- GI50 [4]: 0.532 µM
- TGI [4]: 15.4 µM
- GI50 [5]: 0.695 µM
- TGI [5]: 14.6 µM
- GI50 [6]: 0.165 µM
- TGI [6]: 1.76 µM
- GI50 [7]: 0.321 µM
- TGI [7]: 6.62 µM

Compound: O=c1c(O)cccc2cc(O)c(O)c(O)c12
- GI50 [5]: > 100 µM
- TGI [5]: > 100 µM
- GI50 [6]: 3.82 µM
- TGI [6]: > 100 µM
- GI50 [7]: 5.42 µM
- TGI [7]: > 100 µM
